Data: ChEMBL document CHEMBL5236585, “Design, synthesis and antifungal activities of novel triazole derivatives with selenium-containing hydrophobic side chains” (Bioorg Med Chem Lett, 2022)
In brackets after ≈: the same amount, converted by molar mass.

Experiments:
Nakaseomyces glabratus = test: Antifungal activity against clinical isolate Candida glabrata assessed as inhibition of fungal growth by microdilution method; format: functional
Aspergillus fumigatus = test: Antifungal activity against Aspergillus fumigatus CGMCC 3.7795 assessed as inhibition of fungal growth by microdilution method; format: functional
Cryptococcus neoformans = test: Antifungal activity against Cryptococcus neoformans CGMCC 2.3161 assessed as inhibition of fungal growth by microdilution method; format: functional
Candida albicans [1] = test: Antifungal activity against Candida albicans ATCC SC5314 assessed as inhibition of fungal growth by microdilution method; format: functional
Pichia kudriavzevii = test: Antifungal activity against Candida krusei AS 2.1045 assessed as inhibition of fungal growth by microdilution method; format: functional
Candida parapsilosis = test: Antifungal activity against Candida parapsilosis 22019 assessed as inhibition of fungal growth by microdilution method; format: functional; settings: Lodderomyces parapsilosis
Candida tropicalis = test: Antifungal activity against Candida tropicalis CGMCC 2.3739 assessed as inhibition of fungal growth by microdilution method; format: functional
Candida albicans [2] = test: Antifungal activity against Candida albicans CPCC 400616 assessed as inhibition of fungal growth by microdilution method; format: functional
Candida albicans [3] = test: Antifungal activity against Candida albicans CPCC 400616 assessed as inhibition of fungal growth; format: functional
Candida albicans [4] = test: Antifungal activity against Candida albicans ATCC SC5314 assessed as inhibition of fungal growth; format: functional
HL-60 = test: Cytotoxicity against human HL-60 cells assessed as inhibition of cell growth by MTT assay; format: functional, cell-based
[5] = biological target: T1, Lanosterol 14-alpha demethylase (Candida albicans (strain SC5314 / ATCC MYA-2876) (Yeast), UniProt P10613); test: Inhibition of CYP51 in Candida albicans SC5314 assessed as ergosterol level at 2 ug/ml by GC-MS analysis (reference value: 98.3 %); set-up: scale not given: the % may be the effect or the level left; settings: at 2 µg/mL
[6] = biological target: T1, Lanosterol 14-alpha demethylase; test: Inhibition of CYP51 in Candida albicans SC5314 assessed as lanosterol level at 8 ug/ml by GC-MS analysis (reference value: 1.7 %); set-up: scale not given: the % may be the effect or the level left; settings: at 8 µg/mL
PC-3 = test: Cytotoxicity against human PC-3 cells assessed as inhibition of cell growth by MTT assay; format: functional, cell-based
MDA-MB-231 = test: Cytotoxicity against human MDA-MB-231 cells assessed as inhibition of cell growth by MTT assay; format: functional, cell-based
[7] = biological target: T1, Lanosterol 14-alpha demethylase; test: Inhibition of CYP51 in Candida albicans SC5314 assessed as ergosterol level at 8 ug/ml by GC-MS analysis (reference value: 98.3 %); set-up: scale not given: the % may be the effect or the level left; settings: at 8 µg/mL
[8] = biological target: T1, Lanosterol 14-alpha demethylase; test: Inhibition of CYP51 in Candida albicans SC5314 assessed as obtusifoliol level at 1 ug/ml by GC-MS analysis (reference value: 0 %); set-up: scale not given: the % may be the effect or the level left; settings: at 1 µg/mL
[9] = biological target: T1, Lanosterol 14-alpha demethylase; test: Inhibition of CYP51 in Candida albicans SC5314 assessed as obtusifoliol level at 4 ug/ml by GC-MS analysis (reference value: 0 %); set-up: scale not given: the % may be the effect or the level left; settings: at 4 µg/mL
[10] = biological target: T1, Lanosterol 14-alpha demethylase; test: Inhibition of CYP51 in Candida albicans SC5314 assessed as obtusifoliol level at 8 ug/ml by GC-MS analysis (reference value: 0 %); set-up: scale not given: the % may be the effect or the level left; settings: at 8 µg/mL
[11] = biological target: T1, Lanosterol 14-alpha demethylase; test: Inhibition of CYP51 in Candida albicans SC5314 assessed as lanosterol level at 1 ug/ml by GC-MS analysis (reference value: 1.7 %); set-up: scale not given: the % may be the effect or the level left; settings: at 1 µg/mL
[12] = biological target: T1, Lanosterol 14-alpha demethylase; test: Inhibition of CYP51 in Candida albicans SC5314 assessed as lanosterol level at 2 ug/ml by GC-MS analysis (reference value: 1.7 %); set-up: scale not given: the % may be the effect or the level left; settings: at 2 µg/mL
[13] = biological target: T1, Lanosterol 14-alpha demethylase; test: Inhibition of CYP51 in Candida albicans SC5314 assessed as eburicol level at 8 ug/ml by GC-MS analysis (reference value: 0 %); set-up: scale not given: the % may be the effect or the level left; settings: at 8 µg/mL
[14] = biological target: T1, Lanosterol 14-alpha demethylase; test: Inhibition of CYP51 in Candida albicans SC5314 assessed as eburicol level at 2 ug/ml by GC-MS analysis (reference value: 0 %); set-up: scale not given: the % may be the effect or the level left; settings: at 2 µg/mL
[15] = biological target: T1, Lanosterol 14-alpha demethylase; test: Inhibition of CYP51 in Candida albicans SC5314 assessed as ergosterol level at 1 ug/ml by GC-MS analysis (reference value: 98.3 %); set-up: scale not given: the % may be the effect or the level left; settings: at 1 µg/mL
[16] = biological target: T1, Lanosterol 14-alpha demethylase; test: Inhibition of CYP51 in Candida albicans SC5314 assessed as ergosterol level at 4 ug/ml by GC-MS analysis (reference value: 98.3 %); set-up: scale not given: the % may be the effect or the level left; settings: at 4 µg/mL
[17] = biological target: T1, Lanosterol 14-alpha demethylase; test: Inhibition of CYP51 in Candida albicans SC5314 assessed as eburicol level at 1 ug/ml by GC-MS analysis (reference value: 0 %); set-up: scale not given: the % may be the effect or the level left; settings: at 1 µg/mL
[18] = biological target: T1, Lanosterol 14-alpha demethylase; test: Inhibition of CYP51 in Candida albicans SC5314 assessed as lanosterol level at 4 ug/ml by GC-MS analysis (reference value: 1.7 %); set-up: scale not given: the % may be the effect or the level left; settings: at 4 µg/mL
[19] = biological target: T1, Lanosterol 14-alpha demethylase; test: Inhibition of CYP51 in Candida albicans SC5314 assessed as obtusifoliol level at 2 ug/ml by GC-MS analysis (reference value: 0 %); set-up: scale not given: the % may be the effect or the level left; settings: at 2 µg/mL
[20] = biological target: T1, Lanosterol 14-alpha demethylase; test: Inhibition of CYP51 in Candida albicans SC5314 assessed as eburicol level at 4 ug/ml by GC-MS analysis (reference value: 0 %); set-up: scale not given: the % may be the effect or the level left; settings: at 4 µg/mL

T1 sequence (P10613 whole entry): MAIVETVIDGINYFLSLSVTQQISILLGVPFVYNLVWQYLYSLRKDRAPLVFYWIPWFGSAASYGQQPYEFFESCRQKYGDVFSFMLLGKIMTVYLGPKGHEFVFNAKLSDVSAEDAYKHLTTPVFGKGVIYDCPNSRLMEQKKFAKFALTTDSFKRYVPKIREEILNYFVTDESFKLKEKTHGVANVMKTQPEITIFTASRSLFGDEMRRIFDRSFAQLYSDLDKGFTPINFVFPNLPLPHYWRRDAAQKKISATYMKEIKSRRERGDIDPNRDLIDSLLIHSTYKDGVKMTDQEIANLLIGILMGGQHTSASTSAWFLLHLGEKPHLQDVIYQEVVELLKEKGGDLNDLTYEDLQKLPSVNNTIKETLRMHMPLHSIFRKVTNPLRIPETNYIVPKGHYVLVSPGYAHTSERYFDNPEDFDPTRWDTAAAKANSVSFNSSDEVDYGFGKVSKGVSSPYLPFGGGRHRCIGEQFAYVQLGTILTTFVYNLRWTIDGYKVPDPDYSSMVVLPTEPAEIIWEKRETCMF

SMILES | MIC (Nakaseomyces glabratus) | MIC (Aspergillus fumigatus) | MIC (Cryptococcus neoformans) | MIC (Candida albicans [1]) | MIC (Pichia kudriavzevii) | MIC (Candida parapsilosis) | MIC (Candida tropicalis) | MIC (Candida albicans [2]) | also measured
Cc1ccc(C)c([Se]CC(O)(Cn2cncn2)c2ccc(F)cc2F)c1 (stereo unspecified) | 2 µg/mL | 2 µg/mL | 0.25 µg/mL | 1 µg/mL | 1 µg/mL | 0.5 µg/mL | 0.5 µg/mL | 1 µg/mL | –
Cc1ccccc1[Se]C(Cn1ccnc1)c1ccc(Cl)cc1 (stereo unspecified) | – | – | – | – | – | – | – | – | MFC (Candida albicans [3]): 0.25 µg/mL (≈ 0.665 µM); MIC (Candida albicans [3]): 0.02 µg/mL (≈ 0.0532 µM); MIC (Candida albicans [4]): 0.03 µg/mL (≈ 0.0798 µM)
OC(C[Se]Cc1ccc(C(F)(F)F)cc1)(Cn1cncn1)c1ccc(F)cc1F (stereo unspecified) | 4 µg/mL | 4 µg/mL | 0.5 µg/mL | 0.03 µg/mL | 2 µg/mL | 0.25 µg/mL | 0.5 µg/mL | 0.03 µg/mL | –
OC(C[Se]Cc1cccc(F)c1)(Cn1cncn1)c1ccc(F)cc1F (stereo unspecified) | 2 µg/mL | 2 µg/mL | 2 µg/mL | 0.03 µg/mL | 1 µg/mL | 0.25 µg/mL | 0.25 µg/mL | 0.06 µg/mL | –
Cc1ccc(C[Se]CC(O)(Cn2cncn2)c2ccc(F)cc2F)cc1 (stereo unspecified) | 2 µg/mL | 2 µg/mL | 1 µg/mL | 0.06 µg/mL | 2 µg/mL | 0.25 µg/mL | 1 µg/mL | 0.125 µg/mL | –
COc1cccc(C[Se]CC(O)(Cn2cncn2)c2ccc(F)cc2F)c1 (stereo unspecified) | 4 µg/mL | 4 µg/mL | 2 µg/mL | 0.125 µg/mL | 8 µg/mL | 0.25 µg/mL | 4 µg/mL | 0.25 µg/mL | –
OC(C[Se]Cc1ccc(F)cc1)(Cn1cncn1)c1ccc(F)cc1F (stereo unspecified) | 1 µg/mL | 2 µg/mL | 2 µg/mL | 0.03 µg/mL | 1 µg/mL | 0.25 µg/mL | 0.5 µg/mL | 0.06 µg/mL | –
COc1cccc([Se]CC(O)(Cn2cncn2)c2ccc(F)cc2F)c1 (stereo unspecified) | 4 µg/mL | 8 µg/mL | 1 µg/mL | 0.02 µg/mL | 2 µg/mL | 0.125 µg/mL | 2 µg/mL | 0.5 µg/mL | –
COc1cccc2c1C(=O)c1c(O)c3c(c(O)c1C2=O)C[C@@](O)(C(=O)CO)C[C@@H]3O[C@H]1C[C@H](N)[C@H](O)[C@H](C)O1 [DOXORUBICIN] | – | – | – | – | – | – | – | – | IC50 (HL-60): < 0.125 µM
OC(Cn1cncn1)(Cn1cncn1)c1ccc(F)cc1F [FLUCONAZOLE] | – | – | – | – | – | – | 4 µg/mL | – | Activity [5]: 2.5%; Activity [6]: 14.9%; IC50 (PC-3): 16.5 µM; IC50 (MDA-MB-231): 19.2 µM; Activity [7]: 1.1%; Activity [8]: 13.9%; Activity [9]: 13.5%; Activity [10]: 14.1%; Activity [11]: 14.3%; Activity [12]: 15.7%; Activity [13]: 69.9%; IC50 (HL-60): 11.6 µM; Activity [14]: 68.7%; Activity [15]: 3.9%; Activity [16]: 1.5%; Activity [17]: 67.9%; Activity [18]: 15.4%; Activity [19]: 13.1%; Activity [20]: 69.6%
Clc1ccc(COC(Cn2ccnc2)c2ccc(Cl)cc2Cl)c(Cl)c1 (stereo unspecified) [MICONAZOLE] | – | – | – | – | – | – | 1 µg/mL | – | –
